According to patent publication US20240279215A1 (Cytokinetics, Incorporated, priority 2022, published 2024):

Target: human NAMPT (Homo sapiens (Human), UniProt P43490)
Assay: NMN fluorescence biochemical assay (human recombinant NAMPT enzyme assay)
Outline: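 NMN formed was detected by fluorescence (Ex/Em 355/460 nm) after acetophenone, KOH and formic acid derivatization. The cell-free reaction ran 60 min at ambient temperature with 6 nM human NAMPT, 150 μM nicotinamide, 20 μM PRPP, 2.5 mM ATP, pH 7.2 HEPES, and compound dose responses.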

Chain of human NAMPT (P43490 whole entry): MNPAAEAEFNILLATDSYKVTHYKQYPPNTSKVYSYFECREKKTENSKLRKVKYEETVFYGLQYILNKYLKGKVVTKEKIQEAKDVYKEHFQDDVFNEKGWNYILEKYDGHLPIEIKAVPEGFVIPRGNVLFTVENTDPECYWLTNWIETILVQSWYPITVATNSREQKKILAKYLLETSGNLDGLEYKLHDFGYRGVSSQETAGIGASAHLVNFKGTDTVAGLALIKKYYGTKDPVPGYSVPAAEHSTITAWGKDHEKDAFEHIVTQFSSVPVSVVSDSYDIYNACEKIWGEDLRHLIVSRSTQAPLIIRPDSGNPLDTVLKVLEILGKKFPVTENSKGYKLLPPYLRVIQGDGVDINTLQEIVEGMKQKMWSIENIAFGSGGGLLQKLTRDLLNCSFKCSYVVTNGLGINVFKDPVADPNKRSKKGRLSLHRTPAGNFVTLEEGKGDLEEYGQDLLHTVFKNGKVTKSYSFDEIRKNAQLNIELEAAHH

Row | SMILES | AC1.4 Human [µM] | EC50 [µM]
1 | C[C@@H]1CCCN(C(=O)Cc2ccc(NC(=O)OCc3ccc(Cl)cc3)cc2)C1 [Compound 256, (4-chlorophenyl)methyl N-(4-{2-[(3R)-3-methylpiperidin-1-yl]-2-oxoethyl}phenyl)carbamate] | 2.69 | 10.5
2 | O=C(Nc1ccc(CC(=O)N2CCCC[C@H]2CO)cc1)OCc1ccc(Cl)cc1 [Compound 257, (4-chlorophenyl)methyl N-(4-{2-[(2S)-2-(hydroxymethyl)piperidin-1-yl]-2-oxoethyl}phenyl)carbamate] | 2.70 | 31.2
3 | C[C@H]1CCCN(C(=O)Cc2ccc(NC(=O)OCc3ccc(Cl)cc3)cc2)C1 [Compound 261, (4-chlorophenyl)methyl N-(4-{2-[(3S)-3-methylpiperidin-1-yl]-2-oxoethyl}phenyl)carbamate] | 2.83 | 9.46
4 | COc1ccc(COC(=O)Nc2ccc(Cc3ccncc3)cc2)cc1 [Compound 262, 4-methoxybenzyl (4-(pyridin-4-ylmethyl)phenyl)carbamate] | 2.83 | 11.9
5 | COc1ccc(COC(=O)Nc2ccc([C@H]3CNC(=O)CN3C)cc2)cc1 [Compound 263, 4-methoxybenzyl (S)-(4-(1-methyl-5-oxopiperazin-2-yl)phenyl)carbamate] | 2.92 | 39.1
6 | C[C@H](NC(=O)C1CC1)c1ccc(NC(=O)OCc2cnco2)cc1 [Compound 266, 1,3-oxazol-5-ylmethyl N-{4-[(1S)-1-(cyclopropylformamido)ethyl]phenyl}carbamate] | 2.98 | 14.9
7 | O=C(Nc1ccc(CCN2CCN(C3COC3)CC2)cc1)OCc1cnco1 [Compound 269, 1,3-oxazol-5-ylmethyl N-(4-{2-[4-(oxetan-3-yl)piperazin-1-yl]ethyl}phenyl)carbamate] | 3.13 | 44.1
8 | O=C(Nc1ccc(CNC(=O)N2CCOCC2)cc1)OCc1ccc(Cl)cc1 [Compound 270, (4-chlorophenyl)methyl N-{4-[(morpholine-4-carbonylamino)methyl]phenyl}carbamate] | 3.14 | 47.2

More lines, now with the values ahead:

Row | AC1.4 Human [µM] | EC50 [µM] | SMILES
9 | 2.74 | 7.62 | O=C(Nc1ccc(CNC(=O)N2CCN(CC(F)F)CC2)cc1)OCc1ccc(Cl)cc1 [Compound 258, (4-chlorophenyl)methyl N-(4-{[4-(2,2-difluoroethyl)piperazine-1-carbonylamino]methyl}phenyl)carbamate]
10 | 2.75 | 13.9 | C[C@H](NC(=O)c1cc(C(F)F)nn1C)c1ccc(NC(=O)OCc2ccc(Cl)cc2)cc1 [Compound 259]
11 | 2.77 | 14.5 | CCc1ncoc1C(=O)N[C@@H](C)c1ccc(NC(=O)OCc2ccc(Cl)cc2)cc1 [Compound 260, (4-chlorophenyl)methyl N-{4-[(1S)-1-[(4-ethyl-1,3-oxazol-5-yl)formamido]ethyl]phenyl}carbamate]
12 | 2.93 | 19.7 | Cc1ccc(N(C)C(=O)Cc2ccc(NC(=O)OCc3ccc(Cl)cc3)cc2)cn1 [Compound 264, (4-chlorophenyl)methyl N-(4-{[methyl(6-methylpyridin-3-yl)carbamoyl]methyl}phenyl)carbamate]
13 | 2.94 | 23.2 | O=C(Nc1ccc(CNC(=O)N2CCC2)cc1)OCc1ccc(Cl)cc1 [Compound 265, (4-chlorophenyl)methyl N-{4-[(azetidine-1-carbonylamino)methyl]phenyl}carbamate]
14 | 3.04 | 36.5 | Cc1cnc(C(=O)N[C@@H](C)c2ccc(NC(=O)OCc3ccc(Cl)cc3)cc2)o1 [Compound 267, 4-chlorobenzyl (S)-(4-(1-(5-methyloxazole-2-carboxamido)ethyl)phenyl)carbamate]
15 | 3.05 | 13.8 | Cc1cnoc1C(=O)NCc1ccc(NC(=O)OCc2ccc(Cl)cc2)cc1 [Compound 268, (4-chlorophenyl)methyl N-(4-{[(4-methyl-1,2-oxazol-5-yl)formamido]methyl}phenyl)carbamate]
